Tests used:
Assay in all cases: relative viability (nuclei count vs DMSO), 5 days (fraction); higher = more cells survive
[1] = compound: C1=CC=C(C(=C1)C2=CC=C(C=C2)C3=CSC4=C3C(=C(C(=O)N4)C#N)O)O + COc1cccc2cc(-c3nc([C@H]4CC[C@H](C(=O)O)CC4)n4ncnc(N)c34)[nH]c12 [OSI-027] (partner 0.5 µM)
How it was run: (§1)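 For relative viability, nuclei counts in treated wells were divided by those in vehicle wells. Lung cancer cell lines had been pin-tool dosed in 1536-well plates the day after seeding and cultured for 5 days, then fixed and stained in one step (final 0.05% Triton X-100, 1% formaldehyde, 1 ug/ml Hoechst) and imaged at 4×. Doses were one drug alone or a fixed anchor-drug dose plus five library-drug doses (not always all listed) in √10 steps, and values are duplicate-plate medians.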

[2] = compound: CC1=CN2C(=O)C=C(N=C2C(=C1)C(C)NC3=CC=CC=C3)N4CCOCC4 [TGX 221] + Cc1cc(Nc2cc(N3CCN(C)CC3)nc(Sc3ccc(NC(=O)C4CC4)cc3)n2)n[nH]1 [Tozasertib] (partner 0.1 µM)
How it was run: as §1

[3] = compound: O=C(CCCCCCNC(=O)c1cnc(N(c2ccccc2)c2ccccc2)nc1)NO [Ricolinostat] + C[C@@H](Oc1cc(-c2cnn(C3CCNCC3)c2)cnc1N)c1c(Cl)ccc(F)c1Cl [Crizotinib] (partner 1 µM)
How it was run: as §1

[4] = compound: O=C(CCCCCCNC(=O)c1cnc(N(c2ccccc2)c2ccccc2)nc1)NO [Ricolinostat] + O=C(CCCCCCC(=O)Nc1ccccc1)NO [Vorinostat] (partner 1 µM)
How it was run: as §1

NCI-H2228
relative viability ([1]; first compound 0.08 µM): 0.6
relative viability ([1]; first compound 0.253 µM): 0.785
relative viability ([1]; first compound 0.8 µM): 0.576
relative viability ([1]; first compound 2.53 µM): 0.491
relative viability ([1]; first compound 8 µM): 0.372
relative viability ([2]; first compound 0.08 µM): 0.251
relative viability ([2]; first compound 0.253 µM): 0.262
relative viability ([2]; first compound 0.8 µM): 0.261
relative viability ([2]; first compound 2.53 µM): 0.215
relative viability ([2]; first compound 8 µM): 0.167
relative viability ([3]; first compound 0.08 µM): 0.408
relative viability ([3]; first compound 0.253 µM): 0.475
relative viability ([3]; first compound 0.8 µM): 0.546
relative viability ([3]; first compound 2.53 µM): 0.549
relative viability ([4]; first compound 0.08 µM): 0.896
relative viability ([4]; first compound 0.253 µM): 0.647
relative viability ([4]; first compound 0.8 µM): 0.605
relative viability ([4]; first compound 2.53 µM): 0.64

NCI-H322M
relative viability ([1]; first compound 0.08 µM): 0.59
relative viability ([1]; first compound 0.253 µM): 0.489
relative viability ([1]; first compound 0.8 µM): 0.502
relative viability ([1]; first compound 2.53 µM): 0.576
relative viability ([1]; first compound 8 µM): 0.514
relative viability ([2]; first compound 0.08 µM): 0.513
relative viability ([2]; first compound 0.253 µM): 0.468
relative viability ([2]; first compound 0.8 µM): 0.446
relative viability ([2]; first compound 2.53 µM): 0.442
relative viability ([2]; first compound 8 µM): 0.44
relative viability ([3]; first compound 0.253 µM): 0.913
relative viability ([3]; first compound 0.8 µM): 0.818
relative viability ([3]; first compound 2.53 µM): 0.751
relative viability ([4]; first compound 0.08 µM): 0.621
relative viability ([4]; first compound 0.253 µM): 0.834
relative viability ([4]; first compound 0.8 µM): 0.827
relative viability ([4]; first compound 2.53 µM): 0.804

LK-2
relative viability ([1]; first compound 0.253 µM): 0.161
relative viability ([1]; first compound 0.8 µM): 0.178
relative viability ([1]; first compound 2.53 µM): 0.218
relative viability ([1]; first compound 8 µM): 0.203
relative viability ([2]; first compound 0.08 µM): 0.203
relative viability ([2]; first compound 0.253 µM): 0.202
relative viability ([2]; first compound 0.8 µM): 0.182
relative viability ([2]; first compound 2.53 µM): 0.187
relative viability ([2]; first compound 8 µM): 0.161
relative viability ([3]; first compound 0.253 µM): 0.259
relative viability ([3]; first compound 0.8 µM): 0.213
relative viability ([3]; first compound 2.53 µM): 0.253
relative viability ([4]; first compound 0.08 µM): 0.393
relative viability ([4]; first compound 0.253 µM): 0.311
relative viability ([4]; first compound 0.8 µM): 0.261
relative viability ([4]; first compound 2.53 µM): 0.192

LXF-289
relative viability ([1]; first compound 0.08 µM): 0.666
relative viability ([1]; first compound 0.253 µM): 0.801
relative viability ([1]; first compound 0.8 µM): 0.778
relative viability ([1]; first compound 2.53 µM): 0.865
relative viability ([1]; first compound 8 µM): 0.732
relative viability ([2]; first compound 0.08 µM): 0.215
relative viability ([2]; first compound 0.253 µM): 0.235
relative viability ([2]; first compound 0.8 µM): 0.201
relative viability ([2]; first compound 2.53 µM): 0.202
relative viability ([2]; first compound 8 µM): 0.114
relative viability ([3]; first compound 0.08 µM): 0.804
relative viability ([3]; first compound 0.253 µM): 0.852
relative viability ([3]; first compound 0.8 µM): 0.804
relative viability ([3]; first compound 2.53 µM): 0.719
relative viability ([4]; first compound 0.08 µM): 0.697
relative viability ([4]; first compound 0.253 µM): 0.723
relative viability ([4]; first compound 0.8 µM): 0.681
relative viability ([4]; first compound 2.53 µM): 0.483

PC-3 [JPC-3]
relative viability ([1]; first compound 0.08 µM): 0.637
relative viability ([1]; first compound 0.253 µM): 0.777
relative viability ([1]; first compound 0.8 µM): 0.704
relative viability ([1]; first compound 2.53 µM): 0.93
relative viability ([1]; first compound 8 µM): 0.719
relative viability ([2]; first compound 0.08 µM): 0.822
relative viability ([2]; first compound 0.253 µM): 0.913
relative viability ([2]; first compound 0.8 µM): 0.838
relative viability ([2]; first compound 2.53 µM): 0.856
relative viability ([2]; first compound 8 µM): 0.833
relative viability ([3]; first compound 0.08 µM): 1.01
relative viability ([3]; first compound 0.253 µM): 0.902
relative viability ([3]; first compound 0.8 µM): 0.963
relative viability ([3]; first compound 2.53 µM): 0.829
relative viability ([4]; first compound 0.08 µM): 0.505
relative viability ([4]; first compound 0.253 µM): 0.854
relative viability ([4]; first compound 0.8 µM): 0.448
relative viability ([4]; first compound 2.53 µM): 0.669
